Test results published in publication PMC2736896 (2009).

Molecular target: bilitranslocase (BTL) homologue
Assay: inhibition of electrogenic BSP uptake into pulp microsomes, spectrophotometric
Format: biochemical, Vitis vinifera

Row | Ki [µM] | SMILES
1 | 97.5 | O=c1c(O)c(-c2ccc(O)c(O)c2)oc2cc(O)cc(O)c12 [quercetin]
2 | 75.8 | O=C1C[C@@H](c2ccc(O)c(O)c2)Oc2cc(O)cc(O)c21 [eriodictyol]
